Experimental data reported in patent publication US10597388B2, “Pyridazinone herbicides” (FMC CORPORATION, priority 2014, dated 2020).

Columns and labels:
Type in all cases: in vivo
[1] = tested on: blackgrass (Alopecurus myosuroides); test: Test C greenhouse herbicide test, pre- and postemergence
In short: (§1)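 Percent-control ratings (0 none, 100 complete) came from visual comparison with controls held alongside in the greenhouse for 13–15 d. Treatments covered soil application at sowing and foliar application to young plants 2–18 cm tall.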

corn (Zea mays) = test: as above
In short: as §1

[2] = tested on: crabgrass, large (large crabgrass, Digitaria sanguinalis); test: as above
In short: as §1

[3] = tested on: foxtail, giant (giant foxtail, Setaria faberii); test: as above
In short: as §1

[4] = tested on: johnsongrass (Sorghum halepense); test: as above
In short: as §1

[5] = tested on: lambsquarters (Chenopodium album); test: as above
In short: as §1

[6] = tested on: morningglory (Ipomoea coccinea); test: as above
In short: as §1

[7] = tested on: oilseed rape (Brassica napus); test: as above
In short: as §1

[8] = tested on: pigweed (Amaranthus retroflexus); test: as above
In short: as §1

[9] = tested on: ragweed (common ragweed, Ambrosia elatior); test: as above
In short: as §1

[10] = tested on: ryegrass, Italian (Italian ryegrass, Lolium multiflorum); test: as above
In short: as §1

soybean (Glycine max) = test: as above
In short: as §1

[11] = tested on: velvetleaf (Abutilon theophrasti); test: as above
In short: as §1

[12] = tested on: waterhemp (common waterhemp, Amaranthus rudis); test: as above
In short: as §1

kochia (Kochia scoparia) = test: Test C greenhouse herbicide test, postemergence
In short: (§2)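 Seedlings are raised in pots of peat moss–vermiculite medium with starter nutrients, then receive postemergence test chemical at the 1- to 4-leaf stage. They are kept in the greenhouse 13 to 15 d and scored visually versus controls, 0 meaning no effect and 100 complete control.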

[13] = tested on: oat, wild (wild oat, Avena fatua); test: Test C greenhouse herbicide test, postemergence
In short: as §2

[14] = Postemergence, 31 g ai/ha, 0 to 100 scale (0 no effect, 100 complete control)
[15] = Postemergence, 125 g ai/ha, scale 0 to 100, 0 is no effect, 100 is complete control
[16] = Postemergence, 250 g ai/ha, scale 0 to 100, 0 no effect, 100 complete control, 13 to 15 d
[17] = Preemergence, 31 g ai/ha, scale 0 to 100, 0 is no effect, 100 is complete control
[18] = Preemergence, 62 g ai/ha, scale 0 to 100, 0 is no effect, 100 is complete control
[19] = Preemergence, 125 g ai/ha, scale 0 to 100, 0 is no effect, 100 is complete control
[20] = Preemergence, 250 g ai/ha, scale 0 to 100 (0 no effect, 100 complete control)
[21] = postemergence, 62 g ai/ha, scale 0 to 100, 0 no effect, 100 complete control

## CCOC(=O)Oc1c(C)nn(C)c(=O)c1-c1c(C)ccc2ccccc12 [Compound 73]
[1]; [14]
  Blackgrass plant response rating: 40
[1]; [15]
  Plant response rating, Blackgrass: 90
[1]; [16]
  Plant response rating, Blackgrass: 90
[1]; [17]
  Plant response rating, Blackgrass: 50
[1]; [18]
  Plant response rating, Blackgrass: 80
[1]; [19]
  Plant response rating, Blackgrass: 85
[1]; [20]
  Blackgrass plant response rating: 90
[1]; [21]
  Blackgrass plant response rating: 85
Corn (Zea mays); [14]
  Corn plant response rating: 5
Corn (Zea mays); [15]
  Plant response rating, Corn: 20
Corn (Zea mays); [16]
  Plant response rating, Corn: 60
Corn (Zea mays); [17]
  Plant response rating, Corn: 0
Corn (Zea mays); [18]
  Plant response rating, Corn: 0
Corn (Zea mays); [19]
  Plant response rating, Corn: 5
Corn (Zea mays); [20]
  Corn plant response rating: 25
Corn (Zea mays); [21]
  Corn plant response rating: 20
[2]; [14]
  Crabgrass, Large plant response rating: 30
[2]; [15]
  Plant response rating, Crabgrass, Large: 60
[2]; [16]
  Plant response rating, Crabgrass, Large: 75
[2]; [17]
  Plant response rating, Crabgrass, Large: 0
[2]; [18]
  Plant response rating, Crabgrass, Large: 30
[2]; [19]
  Plant response rating, Crabgrass, Large: 75
[2]; [20]
  Crabgrass, Large plant response rating: 75
[2]; [21]
  Crabgrass, Large plant response rating: 35
[3]; [14]
  Foxtail, Giant plant response rating: 40
[3]; [15]
  Plant response rating, Foxtail, Giant: 75
[3]; [16]
  Plant response rating, Foxtail, Giant: 85
[3]; [17]
  Plant response rating, Foxtail, Giant: 55
[3]; [18]
  Plant response rating, Foxtail, Giant: 70
[3]; [19]
  Plant response rating, Foxtail, Giant: 85
[3]; [20]
  Foxtail, Giant plant response rating: 95
[3]; [21]
  Foxtail, Giant plant response rating: 65
[4]; [14]
  Johnsongrass plant response rating: 5
[4]; [15]
  Plant response rating, Johnsongrass: 40
[4]; [16]
  Plant response rating, Johnsongrass: 50
[4]; [17]
  Plant response rating, Johnsongrass: 0
[4]; [18]
  Plant response rating, Johnsongrass: 10
[4]; [19]
  Plant response rating, Johnsongrass: 35
[4]; [20]
  Johnsongrass plant response rating: 55
[4]; [21]
  Johnsongrass plant response rating: 5
[5]; [14]
  Lambsquarters plant response rating: 90
[5]; [15]
  Plant response rating, Lambsquarters: 95
[5]; [16]
  Plant response rating, Lambsquarters: 98
[5]; [17]
  Plant response rating, Lambsquarters: 75
[5]; [18]
  Plant response rating, Lambsquarters: 70
[5]; [19]
  Plant response rating, Lambsquarters: 80
[5]; [20]
  Lambsquarters plant response rating: 90
[5]; [21]
  Lambsquarters plant response rating: 95
[6]; [14]
  Morningglory plant response rating: 75
[6]; [15]
  Plant response rating, Morningglory: 95
[6]; [16]
  Plant response rating, Morningglory: 95
[6]; [17]
  Plant response rating, Morningglory: 85
[6]; [18]
  Plant response rating, Morningglory: 90
[6]; [19]
  Plant response rating, Morningglory: 90
[6]; [20]
  Morningglory plant response rating: 95
[6]; [21]
  Morningglory plant response rating: 90
[7]; [14]
  Oilseed Rape plant response rating: 10
[7]; [15]
  Plant response rating, Oilseed Rape: 70
[7]; [16]
  Plant response rating, Oilseed Rape: 85
[7]; [17]
  Plant response rating, Oilseed Rape: 90
[7]; [18]
  Plant response rating, Oilseed Rape: 85
[7]; [19]
  Plant response rating, Oilseed Rape: 90
[7]; [20]
  Oilseed Rape plant response rating: 85
[7]; [21]
  Oilseed Rape plant response rating: 70
[8]; [14]
  Pigweed plant response rating: 80
[8]; [15]
  Plant response rating, Pigweed: 95
[8]; [16]
  Plant response rating, Pigweed: 98
[8]; [17]
  Plant response rating, Pigweed: 95
[8]; [18]
  Plant response rating, Pigweed: 100
[8]; [19]
  Plant response rating, Pigweed: 100
[8]; [20]
  Pigweed plant response rating: 98
[8]; [21]
  Pigweed plant response rating: 85
[9]; [14]
  Ragweed plant response rating: 85
[9]; [15]
  Plant response rating, Ragweed: 90
[9]; [16]
  Plant response rating, Ragweed: 90
[9]; [17]
  Plant response rating, Ragweed: 85
[9]; [18]
  Plant response rating, Ragweed: 95
[9]; [19]
  Plant response rating, Ragweed: 95
[9]; [20]
  Ragweed plant response rating: 98
[9]; [21]
  Ragweed plant response rating: 90
[10]; [14]
  Ryegrass, Italian plant response rating: 85
[10]; [15]
  Plant response rating, Ryegrass, Italian: 90
[10]; [16]
  Plant response rating, Ryegrass, Italian: 90
[10]; [17]
  Plant response rating, Ryegrass, Italian: 75
[10]; [18]
  Plant response rating, Ryegrass, Italian: 90
[10]; [19]
  Plant response rating, Ryegrass, Italian: 90
[10]; [20]
  Ryegrass, Italian plant response rating: 90
[10]; [21]
  Ryegrass, Italian plant response rating: 90
Soybean (Glycine max); [14]
  Soybean plant response rating: 0
Soybean (Glycine max); [15]
  Plant response rating, Soybean: 25
Soybean (Glycine max); [16]
  Plant response rating, Soybean: 45
Soybean (Glycine max); [17]
  Plant response rating, Soybean: 0
Soybean (Glycine max); [18]
  Plant response rating, Soybean: 0
Soybean (Glycine max); [19]
  Plant response rating, Soybean: 0
Soybean (Glycine max); [20]
  Soybean plant response rating: 0
Soybean (Glycine max); [21]
  Soybean plant response rating: 15
[11]; [14]
  Velvetleaf plant response rating: 40
[11]; [15]
  Plant response rating, Velvetleaf: 85
[11]; [16]
  Plant response rating, Velvetleaf: 90
[11]; [17]
  Plant response rating, Velvetleaf: 25
[11]; [18]
  Plant response rating, Velvetleaf: 80
[11]; [19]
  Plant response rating, Velvetleaf: 85
[11]; [20]
  Velvetleaf plant response rating: 85
[11]; [21]
  Velvetleaf plant response rating: 85
[12]; [14]
  Waterhemp plant response rating: 75
[12]; [15]
  Plant response rating, Waterhemp: 85
[12]; [16]
  Plant response rating, Waterhemp: 100
[12]; [17]
  Plant response rating, Waterhemp: 85
[12]; [18]
  Plant response rating, Waterhemp: 90
[12]; [19]
  Plant response rating, Waterhemp: 90
[12]; [20]
  Waterhemp plant response rating: 95
[12]; [21]
  Waterhemp plant response rating: 75
Kochia (Kochia scoparia); [14]
  Kochia plant response rating: 90
Kochia (Kochia scoparia); [15]
  Plant response rating, Kochia: 90
Kochia (Kochia scoparia); [16]
  Plant response rating, Kochia: 100
Kochia (Kochia scoparia); [21]
  Kochia plant response rating: 90
[13]; [14]
  Oat, Wild plant response rating: 75
[13]; [15]
  Plant response rating, Oat, Wild: 95
[13]; [16]
  Plant response rating, Oat, Wild: 95
[13]; [21]
  Oat, Wild plant response rating: 90
